# Measurements taken from patent publication US9447438B2, “Acetyl-coA carboxylases” (OPX Biotechnologies, Inc., priority 2013, dated 2016).
# What was measured:
# [1] = test system: H. elongata ACCase; assay: Effect of NH4-3-HP and NH4Cl on H. elongata ACCase; type: biochemical, Halomonas elongata; details: FIG. 4; compared to E. coli ACCase
# Protocol: Concentrations of products were measured using the Nanodrop spectophotometer.
# [2] = target: E. coli ACCase (Escherichia coli, UniProt P0A9Q5+P0ABD5+P0ABD8+P24182); details: FIG. 4; for effect of salt on E. coli ACCase activity: compared to H. elongata ACCase; for decrease of the activity of the ACCase enzyme relative to control: salt levels near 0.44M
# Chain of E. coli ACCase (P0A9Q5 whole entry): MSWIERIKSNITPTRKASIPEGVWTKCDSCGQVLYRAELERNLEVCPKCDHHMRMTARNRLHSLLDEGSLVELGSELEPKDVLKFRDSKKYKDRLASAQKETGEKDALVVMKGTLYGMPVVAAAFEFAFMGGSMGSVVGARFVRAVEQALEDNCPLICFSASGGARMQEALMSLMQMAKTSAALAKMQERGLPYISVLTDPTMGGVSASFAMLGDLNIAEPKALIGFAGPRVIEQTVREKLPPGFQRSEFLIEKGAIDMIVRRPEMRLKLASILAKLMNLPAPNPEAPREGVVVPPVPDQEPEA
# Chain of E. coli ACCase (P0ABD5 whole entry): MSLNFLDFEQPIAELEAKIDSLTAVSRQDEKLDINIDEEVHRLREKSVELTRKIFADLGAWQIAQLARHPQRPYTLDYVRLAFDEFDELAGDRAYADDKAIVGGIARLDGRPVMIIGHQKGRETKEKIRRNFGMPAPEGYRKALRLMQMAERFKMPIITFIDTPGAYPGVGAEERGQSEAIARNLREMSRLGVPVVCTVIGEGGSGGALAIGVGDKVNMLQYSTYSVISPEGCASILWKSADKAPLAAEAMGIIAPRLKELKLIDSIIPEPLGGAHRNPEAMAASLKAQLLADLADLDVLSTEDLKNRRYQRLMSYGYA
# Protocol: Levels of greater than 0.66M (60 g/L) are expected to be present for commercially viable commercial production of 3-HP.
# Each gene was amplified by PCRs with Pfu Ultra II HS using the manufacturer's instructions, and the PCR products were purified using the Zymo PCR Cleanup kit. Concentrations of products were measured using the Nanodrop spectophotometer. The Gibson Assembly kit (NEB) was used to construct plasmids expressing the ACCase subunit genes as directed by the manufacturer. The effect of NH4-3-HP and NH4Cl on H. elongata ACCase was tested and compared to the E. coli ACCase.
SMILES,effect of salt on H. elongata ACCase activity [1],effect of salt on E. coli ACCase activity [2],decrease of the activity of the ACCase enzyme relative to control [2]
N.O=C(O)CCO [NH4-3-HP],less affected,significantly inhibited,
[Cl-].[Na+] [NaCl],,,approximately 80%
Cl.N [NH4Cl],less affected,significantly inhibited,approximately 80%
